In PubChem BioAssay (NCI):
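Interpolation was linear, between the two tested concentrations surrounding the appropriate level; five concentrations were tested over 48 hours in 96-well plates. Here, GI50 denotes the concentration required for 50% inhibition of growth. TGI: concentration producing complete growth inhibition.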

What was measured:
Experiment in all cases: inhibition of tumour cell growth, NCI panel, 48 h
DU-145 prostate = test system: DU-145 prostate
MCF7 breast = test system: MCF7 breast
HL-60(TB) leukemia = test system: HL-60(TB) leukemia
UO-31 renal = test system: UO-31 renal
SF-295 CNS = test system: SF-295 CNS
COLO 205 colon = test system: COLO 205 colon
HCT-15 colon = test system: HCT-15 colon
SK-MEL-5 melanoma = test system: SK-MEL-5 melanoma
EKVX NSCLC = test system: EKVX NSCLC
A549 NSCLC = test system: A549 NSCLC
786-0 renal = test system: 786-0 renal
CCRF-CEM leukemia = test system: CCRF-CEM leukemia
NCI-H23 lung = test system: NCI-H23 lung
A498 renal = test system: A498 renal
RPMI-8226 leukemia = test system: RPMI-8226 leukemia
IGROV1 ovarian = test system: IGROV1 ovarian
SK-MEL-2 melanoma = test system: SK-MEL-2 melanoma
HCT-116 colon = test system: HCT-116 colon
UACC-62 melanoma = test system: UACC-62 melanoma
KM12 colon = test system: KM12 colon
OVCAR-5 ovarian = test system: OVCAR-5 ovarian
T-47D breast = test system: T-47D breast
SNB-75 CNS = test system: SNB-75 CNS
K-562 leukemia = test system: K-562 leukemia
CAKI-1 renal = test system: CAKI-1 renal
MALME-3M melanoma = test system: MALME-3M melanoma
PC-3 prostate = test system: PC-3 prostate
OVCAR-3 ovarian = test system: OVCAR-3 ovarian
SF-539 CNS = test system: SF-539 CNS
SK-OV-3 ovarian = test system: SK-OV-3 ovarian
LOX IMVI melanoma = test system: LOX IMVI melanoma
NCI/ADR-RES ovarian = test system: NCI/ADR-RES ovarian
NCI-H460 lung = test system: NCI-H460 lung
SK-MEL-28 melanoma = test system: SK-MEL-28 melanoma
OVCAR-8 ovarian = test system: OVCAR-8 ovarian
SF-268 CNS = test system: SF-268 CNS
SR leukemia = test system: SR leukemia
M14 melanoma = test system: M14 melanoma
MOLT-4 leukemia = test system: MOLT-4 leukemia
SNB-19 CNS = test system: SNB-19 CNS
HCC-2998 colon = test system: HCC-2998 colon
HOP-92 NSCLC = test system: HOP-92 NSCLC
HS 578T breast = test system: HS 578T breast
HT29 colon = test system: HT29 colon
HOP-62 NSCLC = test system: HOP-62 NSCLC
U251 CNS = test system: U251 CNS
UACC-257 melanoma = test system: UACC-257 melanoma
BT-549 breast = test system: BT-549 breast
NCI-H226 lung = test system: NCI-H226 lung
SN12C renal = test system: SN12C renal
TK-10 renal = test system: TK-10 renal
MDA-MB-435 = test system: MDA-MB-435
MDA-MB-231 breast = test system: MDA-MB-231 breast
NCI-H522 lung = test system: NCI-H522 lung
OVCAR-4 ovarian = test system: OVCAR-4 ovarian
SW-620 colon = test system: SW-620 colon
ACHN renal = test system: ACHN renal

## CN1CCN(c2ccc(Nc3nc(NCCCNS(=O)(=O)c4ccccc4)c4sccc4n3)cc2)CC1
DU-145 prostate
  GI50: 15.4 µM
  TGI: 28.7 µM
MCF7 breast
  GI50: 9.12 µM
  TGI: 21.5 µM
HL-60(TB) leukemia
  GI50: 14.9 µM
  TGI: 53.6 µM
UO-31 renal
  GI50: 12.5 µM
  TGI: 25.5 µM
SF-295 CNS
  GI50: 16 µM
  TGI: 30.2 µM
COLO 205 colon
  GI50: 15.5 µM
  TGI: 31.4 µM
HCT-15 colon
  GI50: 3.93 µM
  TGI: 18.8 µM
SK-MEL-5 melanoma
  GI50: 16.6 µM
  TGI: 30.6 µM
EKVX NSCLC
  GI50: 23.5 µM
  TGI: 64 µM
A549 NSCLC
  GI50: 19.3 µM
  TGI: 48.8 µM
786-0 renal
  GI50: 17.8 µM
  TGI: 43.2 µM
CCRF-CEM leukemia
  GI50: 30.2 µM
  TGI: > 100 µM
NCI-H23 lung
  GI50: 15.8 µM
  TGI: 31.6 µM
A498 renal
  GI50: 21.9 µM
  TGI: 41.3 µM
RPMI-8226 leukemia
  GI50: 7.3 µM
  TGI: 55.4 µM
IGROV1 ovarian
  GI50: 13.3 µM
  TGI: 27.3 µM
SK-MEL-2 melanoma
  GI50: 17.5 µM
  TGI: 32.3 µM
HCT-116 colon
  GI50: 7.46 µM
  TGI: > 100 µM
UACC-62 melanoma
  GI50: 12.9 µM
  TGI: 25.7 µM
KM12 colon
  GI50: 20.4 µM
  TGI: 65.7 µM
OVCAR-5 ovarian
  GI50: 16.6 µM
  TGI: 44.4 µM
T-47D breast
  GI50: 18.3 µM
  TGI: 46.5 µM
SNB-75 CNS
  GI50: 10.3 µM
  TGI: 22 µM
K-562 leukemia
  GI50: 3.18 µM
  TGI: > 100 µM
CAKI-1 renal
  GI50: 16.4 µM
  TGI: 30 µM
MALME-3M melanoma
  GI50: 13.3 µM
  TGI: 26.2 µM
PC-3 prostate
  GI50: 19.9 µM
  TGI: 77.4 µM
OVCAR-3 ovarian
  GI50: 21.1 µM
  TGI: 55.6 µM
SF-539 CNS
  GI50: 11.8 µM
  TGI: 24 µM
SK-OV-3 ovarian
  GI50: 29.6 µM
  TGI: 81.3 µM
LOX IMVI melanoma
  GI50: 5.9 µM
  TGI: 20.2 µM
NCI/ADR-RES ovarian
  GI50: 21.2 µM
  TGI: 54.8 µM
NCI-H460 lung
  GI50: 16.4 µM
  TGI: 32.9 µM
SK-MEL-28 melanoma
  GI50: 13.5 µM
  TGI: 26.3 µM
OVCAR-8 ovarian
  GI50: 15.5 µM
  TGI: 48.5 µM
SF-268 CNS
  GI50: 15.3 µM
  TGI: 63.1 µM
SR leukemia
  GI50: 2.83 µM
  TGI: > 100 µM
M14 melanoma
  GI50: 3.9 µM
  TGI: 14.3 µM
MOLT-4 leukemia
  GI50: 5.46 µM
  TGI: 46.6 µM
SNB-19 CNS
  GI50: 25.6 µM
  TGI: 67.7 µM
HCC-2998 colon
  GI50: 17.5 µM
  TGI: 35.6 µM
HOP-92 NSCLC
  GI50: 12.3 µM
  TGI: 58.6 µM
HS 578T breast
  GI50: 13.5 µM
  TGI: 38.5 µM
HT29 colon
  GI50: 5.79 µM
  TGI: 33.2 µM
HOP-62 NSCLC
  GI50: 17 µM
  TGI: 33.2 µM
U251 CNS
  GI50: 7.64 µM
  TGI: 52.4 µM
UACC-257 melanoma
  GI50: 16.2 µM
  TGI: 32.8 µM
BT-549 breast
  GI50: 17.1 µM
  TGI: 37.4 µM
NCI-H226 lung
  GI50: 13.5 µM
  TGI: 26.8 µM
SN12C renal
  GI50: 14.8 µM
  TGI: 31.1 µM
TK-10 renal
  GI50: 23.7 µM
  TGI: 48.6 µM
MDA-MB-435
  GI50: 14.2 µM
  TGI: 27.2 µM
MDA-MB-231 breast
  GI50: 12.8 µM
  TGI: 30 µM
NCI-H522 lung
  GI50: 14.6 µM
  TGI: 30.3 µM
OVCAR-4 ovarian
  GI50: 13.4 µM
  TGI: 48.6 µM
SW-620 colon
  GI50: 12.4 µM
  TGI: 27.6 µM
ACHN renal
  GI50: 15.2 µM
  TGI: 28.5 µM
